From patent publication US9533961B2, “Molecules having certain pesticidal utilities, and intermediates, compositions, and processes related thereto” (priority 2014, dated 2017)

Tests used:
Format in all cases: in vivo
[1] = tested on: Beet Armyworm (Spodoptera exigua, LAPHEG) ("BAW"); test: Bioassay on Beet Armyworm (BAW), 128-well diet tray assay; conditions: 168 h, 50 μg/cm^2 on artificial diet, second instar larvae, five to seven days, 25° C., average of eight wells, read-out: BAW % Control (or Mortality) rating
Experimental: (§1) Certain molecules disclosed in this document were tested against BAW and CEW using procedures described in the following examples. In the reporting of the results, the “BAW & CL Rating Table” was used (See Table Section).
Bioassays on BAW were conducted using a 128-well diet tray assay. one to five second instar BAW larvae were placed in each well (3 mL) of the diet tray that had been previously filled with 1 mL of artificial diet to which 50 μg/cm^2 of the test compound (dissolved in 50 μL of 90:10 acetone-water mixture) had been applied (to each of eight wells) and then allowed to dry. Trays were covered with a clear self-adhesive cover and held at 25° C., 14:10 light-dark for five to seven days. Percent mortality was recorded for the larvae in each well; activity in the eight wells was then averaged. The results are indicated in the table entitled “Table ABC: Biological Results” (See Table Section).

[2] = tested on: Cabbage Looper (Trichoplusia ni, TRIPNI) ("CL"); test: Bioassay on Cabbage Looper (CL), 128-well diet tray assay; conditions: 168 h, read-out: CL % Control (or Mortality) rating
Experimental: as §1
Bioassays on CL were conducted using a 128-well diet tray assay. one to five second instar CL larvae were placed in each well (3 mL) of the diet tray that had been previously filled with 1 mL of artificial diet to which 50 μg/cm^2 of the test compound (dissolved in 50 μL of 90:10 acetone-water mixture) had been applied (to each of eight wells) and then allowed to dry. Trays were covered with a clear self-adhesive cover and held at 25° C., 14:10 light-dark for five to seven days. Percent mortality was recorded for the larvae in each well; activity in the eight wells was then averaged. The results are indicated in the table entitled “Table ABC: Biological Results” (See Table Section).

[3] = tested on: Yellow Fever Mosquito (Aedes aegypti, AEDSAE) ("YFM"); test: Bioassay on Yellow Fever Mosquito (YFM), 96-well plate larval assay; conditions: about 1 day-old larvae, from 4000 ppm master plate, scored on mortality after 3 days
Experimental: Certain molecules disclosed in this document were tested against YFM using procedures described in the following paragraph. In the reporting of the results, the “YFM Rating Table” was used (See Table Section).
Master plates containing 400 μg of a molecule dissolved in 100 μL of dimethyl sulfoxide (DMSO) (equivalent to a 4000 ppm solution) are used. A master plate of assembled molecules contains 15 μL per well. To this plate, 135 μL of a 90:10 water:acetone mixture is added to each well. A robot (Biomek® NXP Laboratory Automation Workstation) is programmed to dispense 15 μL aspirations from the master plate into an empty 96-well shallow plate (“daughter” plate). There are 6 reps (“daughter” plates) created per master. The created daughter plates are then immediately infested with YFM larvae.
The day before plates are to be treated, mosquito eggs are placed in Millipore water containing liver powder to begin hatching (4 g. into 400 mL). After the daughter plates are created using the robot, they are infested with 220 μL of the liver powder/larval mosquito mixture (about 1 day-old larvae). After plates are infested with mosquito larvae, a non-evaporative lid is used to cover the plate to reduce drying. Plates are held at room temperature for 3 days prior to grading. After 3 days, each well is observed and scored based on mortality.

Compound	mortality at 50 µg/cm2 [1] [%]	mortality at 50 µg/cm2 [2] [%]	YFM % Control (or Mortality) rating [3]
CCOc1ccccc1Oc1ccccc1C(=O)Nc1ccc(-c2ncn(-c3ccc(OC(F)(F)C(F)(F)F)cc3)n2)cc1 [F18, 2-(2-Ethoxyphenoxy)-N-(4-(1-(4-(perfluoroethoxy)phenyl)-1H-1,2,4-triazol-3-yl)phenyl)benzamide]	0	0	D (No activity noticed in this bioassay)
Cc1cccc(-c2ccccc2C(=O)NCc2ccc(-c3ncn(-c4ccc(OC(F)(F)F)cc4)n3)cc2)c1C [F36, 2′,3′-Dimethyl-N-(4-(1-(4-(trifluoromethoxy)phenyl)-1H-1,2,4-triazol-3-yl)benzyl)biphenyl-2-carboxamide]	0 to 50	50 to 100	A (80-100)
O=C(Nc1ccc(-c2ncn(-c3ccc(OC(F)(F)F)cc3)n2)cc1)c1cccc(Oc2ccccc2)c1 [F5, 3-Phenoxy-N-(4-(1-(4-(trifluoromethoxy)phenyl)-1H-1,2,4-triazol-3-yl)phenyl)benzamide]	0	50 to 100	D (No activity noticed in this bioassay)
O=C(Nc1ccc(-c2ncn(-c3ccc(OC(F)(F)C(F)(F)F)cc3)n2)cc1)c1cccc(Oc2ccccc2)c1 [F9, N-(4-(1-(4-(perfluoroethoxy)phenyl)-1H-1,2,4-triazol-3-yl)phenyl)-3-phenoxybenzamide]	0	0	D (No activity noticed in this bioassay)
O=C(Nc1ccc(-c2ncn(-c3ccc(OC(F)(F)F)cc3)n2)cc1)c1ccc2c(c1)OC(F)(F)O2 [F22, 2,2-Difluoro-N-(4-(1-(4-(trifluoromethoxy)phenyl)-1H-1,2,4-triazol-3-yl)phenyl)benzo[d][1,3]dioxole-5-carboxamide]	0	0	
O=C(Nc1ccc(-c2ncn(-c3ccc(OC(F)(F)F)cc3)n2)cc1)c1cccc2c1OC(F)(F)O2 [F21, 2,2-Difluoro-N-(4-(1-(4-(trifluoromethoxy)phenyl)-1H-1,2,4-triazol-3-yl)phenyl)benzo[d][1,3]dioxole-4-carboxamide]	50 to 100	50 to 100	
O=C(Nc1ccc(-c2ncn(-c3ccc(OC(F)(F)F)cc3)n2)cc1)c1ccc(Oc2ccccc2)cc1 [F6, 4-Phenoxy-N-(4-(1-(4-(trifluoromethoxy)phenyl)-1H-1,2,4-triazol-3-yl)phenyl)benzamide]	50 to 100	50 to 100	D (No activity noticed in this bioassay)
O=C(Nc1ccc(-c2ncn(-c3ccc(OC(F)(F)F)cc3)n2)cc1)c1cccc(COCC(F)(F)C(F)F)c1 [F20, 3-((2,2,3,3-Tetrafluoropropoxy)methyl)-N-(4-(1-(4-(trifluoromethoxy)phenyl)-1H-1,2,4-triazol-3-yl)phenyl)benzamide]	0	0	B (More than 0 - Less than 80)
O=C(Nc1ccc(-c2ncn(-c3ccc(OC(F)(F)F)cc3)n2)cc1)c1ccc(-c2ccccc2)cc1 [F25, N-(4-(1-(4-(trifluoromethoxy)phenyl)-1H-1,2,4-triazol-3-yl)phenyl)-[1,1′-biphenyl]-4-carboxamide]	0	0	D (No activity noticed in this bioassay)
Cc1cc(F)ccc1-c1ccccc1C(=O)NCc1ccc(-c2ncn(-c3ccc(OC(F)(F)F)cc3)n2)cc1 [F40, 4′-Fluoro-2′-methyl-N-(4-(1-(4-(trifluoromethoxy)phenyl)-1H-1,2,4-triazol-3-yl)benzyl)biphenyl-2-carboxamide]	50 to 100	50 to 100	D (No activity noticed in this bioassay)
Cc1ccc(-c2ccccc2C(=O)NCc2ccc(-c3ncn(-c4ccc(OC(F)(F)F)cc4)n3)cc2)c(C)c1 [F33, 2′,4′-Dimethyl-N-(4-(1-(4-(trifluoromethoxy)phenyl)-1H-1,2,4-triazol-3-yl)benzyl)biphenyl-2-carboxamide]	0 to 50	50 to 100	A (80-100)
CC(C)c1cccc(C(=O)Nc2ccc(-c3ncn(-c4ccc(OC(F)(F)F)cc4)n3)cc2)c1 [F15, 3-Isopropyl-N-(4-(1-(4-(trifluoromethoxy)phenyl)-1H-1,2,4-triazol-3-yl)phenyl)benzamide]	0	50 to 100	D (No activity noticed in this bioassay)
Cc1cccc(C)c1-c1ccccc1C(=O)NCc1ccc(-c2ncn(-c3ccc(OC(F)(F)F)cc3)n2)cc1 [F37, 2′,6′-Dimethyl-N-(4-(1-(4-(trifluoromethoxy)phenyl)-1H-1,2,4-triazol-3-yl)benzyl)biphenyl-2-carboxamide]	0 to 50	50 to 100	A (80-100)
Cc1ccc(C(=O)NCc2ccc(-c3ncn(-c4ccc(OC(F)(F)F)cc4)n3)cc2)c(C)c1 [F29, 2,4-Dimethyl-N-(4-(1-(4-(trifluoromethoxy)phenyl)-1H-1,2,4-triazol-3-yl)benzyl)benzamide]	0	0	D (No activity noticed in this bioassay)
O=C(NCc1ccc(-c2ncn(-c3ccc(OC(F)(F)F)cc3)n2)cc1)c1ccccc1-c1ccccc1 [F27, N-(4-(1-(4-(Trifluoromethoxy)phenyl)-1H-1,2,4-triazol-3-yl)benzyl)biphenyl-2-carboxamide]	0 to 50	50 to 100	B (More than 0 - Less than 80)
O=C(Nc1ccc(-c2ncn(-c3ccc(OC(F)(F)F)cc3)n2)cc1)c1ccccc1Cc1ccccc1 [F3, 2-benzyl-N-(4-(1-(4-(trifluoromethoxy)phenyl)-1H-1,2,4-triazol-3-yl)phenyl)benzamide]	50 to 100	50 to 100	D (No activity noticed in this bioassay)
O=C(Nc1ccc(-c2ncn(-c3ccc(OC(F)(F)F)cc3)n2)cc1)c1ccccc1Oc1ccccc1 [F4, 2-Phenoxy-N-(4-(1-(4-(trifluoromethoxy)phenyl)-1H-1,2,4-triazol-3-yl)phenyl)benzamide]	50 to 100	50 to 100	D (No activity noticed in this bioassay)
Cc1ccc(Cl)cc1-c1ccccc1C(=O)NCc1ccc(-c2ncn(-c3ccc(OC(F)(F)F)cc3)n2)cc1 [F34, 5′-Chloro-2′-methyl-N-(4-(1-(4-(trifluoromethoxy)phenyl)-1H-1,2,4-triazol-3-yl)benzyl)biphenyl-2-carboxamide]	0	50 to 100	D (No activity noticed in this bioassay)
O=C(Nc1ccc(-c2ncn(-c3ccc(OC(F)(F)F)cc3)n2)cc1)c1ccccc1COC1CCOCC1 [F23, 2-(((Tetrahydro-2H-pyran-4-yl)oxy)methyl)-N-(4-(1-(4-(trifluoromethoxy)phenyl)-1H-1,2,4-triazol-3-yl)phenyl)benzamide]	50 to 100	50 to 100	D (No activity noticed in this bioassay)
